Results on 17 compounds are retold here after ChEMBL document CHEMBL1142398, “Chemical stability of the peroxide bond enables diversified synthesis of potent tetraoxane antimalarials” (J Med Chem, 2008).

Data set [1] can be described thus: Metabolic stability assessed as half life in human liver microsomes. The data set is classed as ADME, Microsome.
Data set [2] relates to Plasmodium falciparum. In words: microbe, parasite or virus in culture. The note with it: TM91C235.
Description: Antimalarial activity against multidrug-resistant Plasmodium falciparum TM91C235
Data set [3] can be described thus: Metabolic stability assessed as half life in mouse liver microsomes. The data set is classed as ADME, Microsome. A general note: Liver microsomes are a subcellular fraction often used to study metabolism.
Data set [4] deals with Plasmodium falciparum. The experiment in a line: microbe, parasite or virus in culture. The note with it: W2.
Description: Antimalarial activity against Plasmodium falciparum W2
Data set [5] deals with Plasmodium falciparum. The experiment in a line: microbe, parasite or virus in culture. The note with it: D6.
Description: Antimalarial activity against Plasmodium falciparum D6
Data set [6] relates to Plasmodium berghei. In words: Antimalarial activity against Plasmodium berghei KBG173 infected CD1 mice (Mus musculus) at 150 mg/kg/day subcutaneous dose as survival time after 3-5 days. The data set is classed as functional.
Data set [7] deals with Plasmodium berghei. In words: Antimalarial activity against Plasmodium berghei KBG173 infected CD1 mice (Mus musculus) at 9.3 mg/kg/day subcutaneous dose as survival time after 3-5 days. The format is functional.
The test system of data set [8] is Plasmodium berghei. The experiment in a line: Antimalarial activity against Plasmodium berghei KBG173 infected CD1 mice (Mus musculus) at 37.5 mg/kg/day subcutaneous dose as survival time after 3-5 days. The format is functional.
Data set [9] deals with Plasmodium berghei. The experiment in a line: Antimalarial activity against Plasmodium berghei KBG173 infected CD1 mice (Mus musculus) at 300 mg/kg/day subcutaneous dose as survival time after 3-5 days. The format is functional.

What is called half-life is the time needed for the level to fall by half in the phase considered. What is called IC50 is the concentration needed to halve the response being measured. The low end stands for inhibition by little substance, the high end for a need for much substance. For orientation: IC90 means the concentration needed for an effect of 90%. For the compound `CCCNCCC[C@@H](C)[C@H]1CC[C@H]2[C@@H]3[C@H](OC(C)=O)C[C@@H]4CC5(CC[C@]4(C)[C@H]3C[C@H](OC(C)=O)[C@]12C)OOC1(CCCCC1)OO5`, the half-life in data set [1] and in data set [3] was > 60 min each time. The IC50 in the data set with Plasmodium falciparum [2] came to 20.8 nM; in the data set on Plasmodium falciparum [4], 11.1 nM; with Plasmodium falciparum [5], 24.1 nM. Besides, the IC90 in the data set with Plasmodium falciparum [2] worked out at 73.9 nM; in the data set with Plasmodium falciparum [4], 26.9 nM; with Plasmodium falciparum [5], 49.3 nM.
As to `O=C(O)C1CCC2(CC1)OOC1(CCCCC1)OO2`, the IC50 was 411 nM in the data set with Plasmodium falciparum [2], 413 nM in the data set on Plasmodium falciparum [4] and 429 nM in the data set with Plasmodium falciparum [5]. Moreover, the IC90 was 523 nM with Plasmodium falciparum [2], 520 nM in the data set on Plasmodium falciparum [4] and 467 nM with Plasmodium falciparum [5].
With `CC(=O)O[C@H]1C[C@H]2[C@@H]([C@H](OC(C)=O)C[C@@H]3CC4(CC[C@@]32C)OOC2(CCCCC2)OO4)[C@@H]2CC[C@H]([C@H](C)CCCN=[N+]=[N-])[C@@]12C`, the results for the IC50 in the data set with Plasmodium falciparum [2], with Plasmodium falciparum [4] and with Plasmodium falciparum [5] were 13.9 nM, 6.3 nM and 8.6 nM, respectively. Also, the IC90 came to 20.6 nM in the data set with Plasmodium falciparum [2], 21.6 nM in the data set with Plasmodium falciparum [4] and 13.3 nM with Plasmodium falciparum [5].
For `CC(=O)O[C@H]1C[C@H]2[C@@H]([C@H](OC(C)=O)C[C@@H]3CC4(CC[C@@]32C)OOC2(CCCCC2)OO4)[C@@H]2CC[C@H]([C@H](C)CCCO)[C@@]12C`, the half-inhibitory concentration (IC50) in the data set with Plasmodium falciparum [2] came out at 18.1 nM; in the data set with Plasmodium falciparum [4], 9.77 nM; with Plasmodium falciparum [5] it was 15.6 nM. In addition, the IC90 with Plasmodium falciparum [2] turned out to be 27.2 nM; in the data set with Plasmodium falciparum [4], 24.2 nM; in the data set on Plasmodium falciparum [5] it was 28.7 nM.
For the compound `OCC1CCC2(CC1)OOC1(CCCCC1)OO2`, the IC50 in the data set on Plasmodium falciparum [2] was determined as 12.6 nM; with Plasmodium falciparum [4], 6.54 nM; in the data set with Plasmodium falciparum [5], 15.2 nM. Besides, the IC90 in the data set with Plasmodium falciparum [2] amounted to 23.7 nM; in the data set on Plasmodium falciparum [4], 11.6 nM; with Plasmodium falciparum [5], 22.5 nM.
`C[C@@H]1CC[C@H]2[C@@H](C)C(=O)O[C@@H]3O[C@@]4(C)CC[C@@H]1[C@]32OO4` [ARTEMISININ]: the results for the IC50 in the data set on Plasmodium falciparum [2], in the data set on Plasmodium falciparum [4] and with Plasmodium falciparum [5] were 13 nM, 6.7 nM and 9 nM, respectively. Besides, the IC90 stood at 17.4 nM with Plasmodium falciparum [2], 11.5 nM in the data set with Plasmodium falciparum [4] and 12.8 nM with Plasmodium falciparum [5].
As for `CC(C)NCC1CCC2(CC1)OOC1(CCCCC1)OO2`, the Survival in the data set on Plasmodium berghei [6] came out at 23.6 days; with Plasmodium berghei [7], 11.8 days; in the data set with Plasmodium berghei [8], 18.2 days; with Plasmodium berghei [9] it was 23.2 days. Besides, the half-life in [1] stood at 38.7 min; in data set [3], 9.9 min. Also, the IC50 in the data set on Plasmodium falciparum [2] was 9.27 nM; in the data set with Plasmodium falciparum [4] it was 7.54 nM; in the data set with Plasmodium falciparum [5], 9.4 nM. For the same compound, the IC90 in the data set on Plasmodium falciparum [2] was determined as 16.7 nM; in the data set on Plasmodium falciparum [4], 22.9 nM; with Plasmodium falciparum [5], 14.5 nM.
Turning to `O[C@@H](c1cc(C(F)(F)F)nc2c(C(F)(F)F)cccc12)[C@H]1CCCCN1` [MEFLOQUINE], the IC50 with Plasmodium falciparum [2] was 22.4 nM; with Plasmodium falciparum [5], 7.34 nM. Also, the concentration for an effect of 90% (IC90) with Plasmodium falciparum [2] was determined as 50.1 nM; in the data set with Plasmodium falciparum [4], 9.45 nM; with Plasmodium falciparum [5], 19.5 nM.
With `CCCNC(=O)C1CCC2(CC1)OOC1(CCCCC1)OO2`, the IC50 with Plasmodium falciparum [2] amounted to 25.3 nM; with Plasmodium falciparum [4], 22 nM; in the data set with Plasmodium falciparum [5], 19.3 nM. The results for the IC90 with Plasmodium falciparum [2], in the data set with Plasmodium falciparum [4] and with Plasmodium falciparum [5] were 53.9 nM, 44.5 nM and 49.2 nM, respectively.
As to `COC(=O)C1CCC2(CC1)OOC1(CCCCC1)OO2`, the IC50 with Plasmodium falciparum [2] came to 27 nM; in the data set on Plasmodium falciparum [4], 40.4 nM; with Plasmodium falciparum [5], 29.2 nM. Moreover, the IC90 turned out to be 110 nM in the data set on Plasmodium falciparum [2], 62.5 nM in the data set with Plasmodium falciparum [4] and 83.9 nM with Plasmodium falciparum [5].
For the compound `CC(=O)OCCC[C@@H](C)[C@H]1CC[C@H]2[C@@H]3[C@H](OC(C)=O)C[C@@H]4CC5(CC[C@]4(C)[C@H]3C[C@H](OC(C)=O)[C@]12C)OOC1(CCCCC1)OO5`, the 50% inhibitory concentration (IC50) in the data set on Plasmodium falciparum [2] worked out at 19.2 nM; with Plasmodium falciparum [4], 11.6 nM; with Plasmodium falciparum [5] it was 15.9 nM. Besides, the IC90 with Plasmodium falciparum [2] amounted to 29.3 nM; in the data set with Plasmodium falciparum [4] it was 26.3 nM; in the data set on Plasmodium falciparum [5], 28.4 nM.
Consider `CCN(CC)CCCC(C)Nc1ccnc2cc(Cl)ccc12` (configuration not stated) [CHLOROQUINE], for which the results for the IC90 with Plasmodium falciparum [2], in the data set with Plasmodium falciparum [4] and in the data set with Plasmodium falciparum [5] were 345 nM, 1020 nM and 17.6 nM, respectively.
In the case of `CC(=O)O[C@H]1C[C@H]2[C@@H]([C@H](OC(C)=O)C[C@@H]3CC4(CC[C@@]32C)OOC2(CCCCC2)OO4)[C@@H]2CC[C@H]([C@H](C)CCC(=O)O)[C@@]12C`, the figures for the IC50 with Plasmodium falciparum [4] and in the data set on Plasmodium falciparum [5] were 19.2 nM and 30.6 nM, respectively.
Taken in the same sequence, the figures for `COC(=O)CC[C@@H](C)[C@H]1CC[C@H]2[C@@H]3[C@H](OC(C)=O)C[C@@H]4CC5(CC[C@]4(C)[C@H]3C[C@H](OC(C)=O)[C@]12C)OOC1(CCCCC1)OO5` were 17 nM and 21.5 nM.
`CC(=O)O[C@H]1C[C@H]2[C@@H]([C@H](OC(C)=O)C[C@@H]3CC4(CC[C@@]32C)OOC2(CCCCC2)OO4)[C@@H]2CC[C@H]([C@H](C)CCCNCCN(C)C)[C@@]12C`: the half-life in data set [1] and in data set [3] was > 60 min in each case. Also, the IC50 in the data set with Plasmodium falciparum [2] came out at 49.7 nM; in the data set on Plasmodium falciparum [4], 18.5 nM; in the data set with Plasmodium falciparum [5], 46.8 nM. Further, the IC90 in the data set on Plasmodium falciparum [2] stood at 88.1 nM; in the data set on Plasmodium falciparum [4], 65.4 nM; in the data set with Plasmodium falciparum [5] it was 110 nM.
Turning to `c1ccc(CNCC2CCC3(CC2)OOC2(CCCCC2)OO3)cc1`, the half-life in [1] is 42 min; in data set [3] it was 3.5 min. Further, the results for the IC50 in the data set on Plasmodium falciparum [2], with Plasmodium falciparum [4] and with Plasmodium falciparum [5] were 13.9 nM, 8.19 nM and 13.8 nM, respectively. Moreover, the IC90 turned out to be 39.5 nM in the data set on Plasmodium falciparum [2], 20.6 nM in the data set on Plasmodium falciparum [4] and 34.5 nM in the data set on Plasmodium falciparum [5].
In the case of `NC(=O)C1CCC2(CC1)OOC1(CCCCC1)OO2`, the figures for the IC50 in the data set with Plasmodium falciparum [2], in the data set on Plasmodium falciparum [4] and with Plasmodium falciparum [5] were 27.2 nM, 20.2 nM and 24 nM, respectively. The IC90 in the data set with Plasmodium falciparum [2] stood at 55.6 nM; with Plasmodium falciparum [4] it was 40.4 nM; in the data set on Plasmodium falciparum [5] it was 42.8 nM.
